Experimental data published in ChEMBL document CHEMBL1921727, “Stereoselective synthesis of (RP)-8-substituted-N⁶-acylated and N⁶-alkylated adenosine-3',5'-cyclic phosphorothioic acids as cAMP antagonists” (Eur J Med Chem, 2011).
Activity calls are given as the source filed them. The calls are words filed in the database; no cut-off is given here.

Assays:
T-cell [1] = experiment: Antagonist activity at PKA in human CD3-positive T cells assessed as inhibition of cell proliferation after 72 hrs by [H]thymidine incorporation assay; format: functional, cell-based
T-cell [2] = experiment: Induction of PKA activation in human CD3-positive T cells assessed as increase of cell proliferation after 72 hrs by [H]thymidine incorporation assay; format: cell-based
[3] = Cytotoxicity against human CD3-positive T cells assessed as [H]thymidine incorporation after 72 hrs by beta scintillation counting; format: cell-based; details: t-cell
[4] = Antagonist activity at PKA in human CD3-positive T cells assessed as inhibition of cell proliferation after 72 hrs by [H]thymidine incorporation assay relative to (RP)-8-Br-cAMPS; format: functional
T-cell [5] = experiment: Induction of PKA activation in human CD3-positive T cells assessed as increase of cell proliferation after 72 hrs by [H]thymidine incorporation assay relative to (SP)-8-Br-cAMPS; format: cell-based

Q: Which results are given for `CNc1ncnc2c1nc(-c1ccco1)n2[C@@H]1O[C@@H]2COP(=O)([S-])O[C@H]2[C@H]1O.[Na+]` (stereo not given in full)?
A: Inhibition of cell proliferation (active/not active) (T-cell [1]): Active; Activity (T-cell [2]): Active; Activity [3]: Non-toxic; Ratio [4]: 0.2

Q: What does the source list for `CCCNc1ncnc2c1nc(-c1ccco1)n2[C@@H]1O[C@@H]2COP(=O)(S)O[C@H]2[C@H]1O` (stereo not given in full)?
A: Inhibition of cell proliferation (active/not active) (T-cell [1]): Active; Activity (T-cell [2]): Active; Activity [3]: Non-toxic; Ratio [4]: 0.24

Q: Which “Inhibition of cell proliferation (active/not active)” value (T-cell [1]) does the source give for `CCCCNc1ncnc2c1nc(-c1ccco1)n2[C@@H]1O[C@@H]2COP(=O)(S)O[C@H]2[C@H]1O` (stereo not given in full) here?
A: The value was “Active”.

Q: What about the Activity (T-cell [2]) of the same molecule?
A: The Activity was “Active”.

Q: What about the Activity [3] of the same molecule?
A: Its Activity is “Non-toxic”.

Q: What about the Ratio [4] of the same molecule?
A: Its Ratio is 0.53.

Q: For `O=P1([S-])OC[C@H]2O[C@@H](n3c(-c4ccco4)nc4c(NCc5ccccc5)ncnc43)[C@H](O)[C@@H]2O1.[Na+]` (stereo not given in full), which “Inhibition of cell proliferation (active/not active)” value (T-cell [1]) is on record?
A: Its value is “inactive”.

Q: What about the Activity (T-cell [2]) of the same molecule?
A: Its Activity is “inactive”.

Q: And the Activity [3]?
A: The Activity was “Non-toxic”.

Q: What about the Ratio (T-cell [5]) of the same molecule?
A: Its Ratio is 0.99.

Q: Which results are given for `CN(C)c1ncnc2c1nc(-c1ccco1)n2[C@@H]1O[C@@H]2COP(=O)([S-])O[C@H]2[C@H]1O.[Na+]` (stereo not given in full)?
A: Inhibition of cell proliferation (active/not active) (T-cell [1]): inactive; Activity (T-cell [2]): Active; Activity [3]: Non-toxic; Ratio [4]: 0.1
